For two compounds, Kd results are on record in PMC8634040, “The multi-target aspect of an MmpL3 inhibitor: The BM212 series of compounds bind EthR2, a transcriptional regulator of ethionamide activation” (The Cell Surface, 2021).

A word on the Kd: it is a measure of binding affinity in units of concentration.

One assay addresses EthR2 (Rv0078) (Mycobacterium tuberculosis, UniProt O53623). Kind of assay: biochemical. It is filed as binding.
Assay [1] concerns the target T1, BCG_0174 (SnoaL-like domain-containing, ortholog to Rv0138) (Mycobacterium tuberculosis, UniProt A0A679LAM0).
T1 construct: gene BQ2027_MB0143
Kind of assay: chemoproteomic competition with immobilised GSK569A/GSK574A beads, TMT LC-MS/MS; IC50 […]. Format: biochemical.

For another assay, the target named is T2, BCG_0109 (EthR2) (Mycobacterium tuberculosis, UniProt O53623).
T2 construct: gene Rv0078
The description is as above. It is filed as biochemical.

T1 sequence (A0A679LAM0 entry or part of it): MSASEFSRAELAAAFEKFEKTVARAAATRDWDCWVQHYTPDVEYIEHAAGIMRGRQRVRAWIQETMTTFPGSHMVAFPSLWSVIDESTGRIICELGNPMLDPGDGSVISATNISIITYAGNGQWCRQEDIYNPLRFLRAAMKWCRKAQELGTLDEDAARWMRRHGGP
T2 sequence (O53623 entry or part of it): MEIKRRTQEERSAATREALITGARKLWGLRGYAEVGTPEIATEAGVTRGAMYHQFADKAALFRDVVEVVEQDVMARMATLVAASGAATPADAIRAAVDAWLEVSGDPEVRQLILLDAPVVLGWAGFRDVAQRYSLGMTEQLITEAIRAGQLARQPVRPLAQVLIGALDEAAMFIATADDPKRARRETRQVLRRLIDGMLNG
EthR2 (Rv0078), sequence (O53623 entry or part of it): as above

On to `Cc1c(CN2CCN(C)CC2)cc(-c2ccc(Cl)cc2)n1-c1ccc(Cl)cc1` [BM212, 1-((1,5-bis(4-chlorophenyl)-2-methyl-1H-pyrrol-3-yl)methyl)-4-methylpiperazine], for which, at EthR2 (Rv0078), the Kd was determined as 0.66 µM.

For `Cc1c(CN2CCN(C)CC2)cc(-c2ccc(C(C)C)cc2)n1-c1ccc(F)cc1` [GSK074A, 1-((1-(4-Fluorophenyl)-5-(4-isopropylphenyl)-2-methyl-1H-pyrrol-3-yl)methyl)-4-methylpiperazine], the Kd in assay [1] stood at 7.3 µM; at BCG_0109 (EthR2), 2.9 µM.
